Calls of active or inactive are those of the source. No rule for the calls is given here.

The subject of the data set is CCRIS mutagenicity, Ames/micronucleus/aberration tests. Kind of data set: CCRIS mutagenicity studies. To be noted: Test System: AMES SALMONELLA TYPHIMURIUM
The mark [1] stands for this setting: Strain/Indicator: TA100, Metabolic Activation: RAT, LIVER, S-9, AROCLOR 1254, Method: STANDARD PLATE.
[2] abbreviates: Strain/Indicator: TA98, Metabolic Activation: NONE, Method: STANDARD PLATE.
[3] abbreviates: Strain/Indicator: TA98, Metabolic Activation: RAT, LIVER, S-9, AROCLOR 1254, Method: STANDARD PLATE.
Where [4] appears, read: Strain/Indicator: TA100, Metabolic Activation: NONE, Method: STANDARD PLATE.

Turning to `CC(C)(C)OOC(C)(C)C`, the mutagenic call was “inactive; negative” (Strain/Indicator: TA97, Metabolic Activation: HAMSTER, LIVER, S-9, AROCLOR 1254 (10%), Method: PREINCUBATION); “inactive; negative” (Strain/Indicator: TA97, Metabolic Activation: HAMSTER, LIVER, S-9, AROCLOR 1254 (30%), Method: PREINCUBATION); “inactive; negative” (Strain/Indicator: TA97, Metabolic Activation: NONE, Method: PREINCUBATION); “inactive; negative” (Strain/Indicator: TA97, Metabolic Activation: RAT, LIVER, S-9, AROCLOR 1254 (10 OR 30%), Method: PREINCUBATION); “inactive; negative” (Strain/Indicator: TA98, Metabolic Activation: HAMSTER, LIVER, S-9, AROCLOR 1254 (10%), Method: PREINCUBATION); “inactive; negative” (Strain/Indicator: TA98, Metabolic Activation: HAMSTER, LIVER, S-9, AROCLOR 1254 (30%), Method: PREINCUBATION). Besides, the mutagenic call (Strain/Indicator: TA98, Metabolic Activation: NONE, Method: PREINCUBATION) is “inactive; negative”; the mutagenic call (Strain/Indicator: TA98, Metabolic Activation: RAT, LIVER, S-9, AROCLOR 1254 (10 OR 30%), Method: PREINCUBATION) was “inactive; negative”; the mutagenic call (Strain/Indicator: TA100, Metabolic Activation: HAMSTER, LIVER, S-9, AROCLOR 1254 (10%), Method: PREINCUBATION) is “inactive; negative”; the mutagenic call (Strain/Indicator: TA100, Metabolic Activation: HAMSTER, LIVER, S-9, AROCLOR 1254 (30%), Method: PREINCUBATION) was “inactive; negative”; the mutagenic call (Strain/Indicator: TA100, Metabolic Activation: NONE, Method: PREINCUBATION) is “inactive; negative”; the mutagenic call (Strain/Indicator: TA100, Metabolic Activation: RAT, LIVER, S-9, AROCLOR 1254 (10 OR 30%), Method: PREINCUBATION) is “inactive; negative”. For the same compound, the mutagenic call (Strain/Indicator: TA1535, Metabolic Activation: HAMSTER, LIVER, S-9, AROCLOR 1254 (10%), Method: PREINCUBATION) was “inactive; negative”; the mutagenic call (Strain/Indicator: TA1535, Metabolic Activation: HAMSTER, LIVER, S-9, AROCLOR 1254 (30%), Method: PREINCUBATION) is “inactive; negative”; the mutagenic call (Strain/Indicator: TA1535, Metabolic Activation: NONE, Method: PREINCUBATION) was “inactive; negative”; the mutagenic call (Strain/Indicator: TA1535, Metabolic Activation: RAT, LIVER, S-9, AROCLOR 1254 (10 OR 30%), Method: PREINCUBATION) was “inactive; negative”.
Consider `c1cc2ccc3cc4cccc5ccc6cc(c1)c2c3c6c54`, for which the mutagenic call under setting [1] is “active; positive”.
Consider `Clc1ccc2cc3ccccc3cc2c1`, for which the mutagenic call is, setting by setting: under setting [2], “inactive; negative”; under setting [3], “active; positive”; under setting [4], “inactive; negative”; under setting [1], “inactive; negative”.
Regarding `C=C(C)C(=O)OCC(C)(C)COC(=O)C(=C)C`, the mutagenic call is “inactive; negative” under setting [2]; “inactive; negative” under setting [3]; “inactive; negative” (Strain/Indicator: TA98, Metabolic Activation: RAT, LIVER, S-9, SODIUM PHENOBARBITAL, Method: STANDARD PLATE); “inactive; negative” under setting [4]; “inactive; negative” under setting [1]; “inactive; negative” (Strain/Indicator: TA100, Metabolic Activation: RAT, LIVER, S-9, SODIUM PHENOBARBITAL, Method: STANDARD PLATE). The mutagenic call runs as follows: (Strain/Indicator: TA1535, Metabolic Activation: NONE, Method: STANDARD PLATE) “inactive; negative”; (Strain/Indicator: TA1535, Metabolic Activation: RAT, LIVER, S-9, AROCLOR 1254, Method: STANDARD PLATE) “inactive; negative”; (Strain/Indicator: TA1535, Metabolic Activation: RAT, LIVER, S-9, SODIUM PHENOBARBITAL, Method: STANDARD PLATE) “inactive; negative”; (Strain/Indicator: TA1537, Metabolic Activation: NONE, Method: STANDARD PLATE) “inactive; negative”; (Strain/Indicator: TA1537, Metabolic Activation: RAT, LIVER, S-9, AROCLOR 1254, Method: STANDARD PLATE) “inactive; negative”; (Strain/Indicator: TA1537, Metabolic Activation: RAT, LIVER, S-9, SODIUM PHENOBARBITAL, Method: STANDARD PLATE) “inactive; negative”. In addition, the mutagenic call by setting is: (Strain/Indicator: TA1538, Metabolic Activation: NONE, Method: STANDARD PLATE) “inactive; negative”; (Strain/Indicator: TA1538, Metabolic Activation: RAT, LIVER, S-9, AROCLOR 1254, Method: STANDARD PLATE) “inactive; negative”; (Strain/Indicator: TA1538, Metabolic Activation: RAT, LIVER, S-9, SODIUM PHENOBARBITAL, Method: STANDARD PLATE) “inactive; negative”.

(Values after PubChem BioAssay AID1259407 (Chemical Carcinogenesis Research Information System (CCRIS), 2018).)
